According to patent publication US11547697B2, “Heterocyclic compounds and uses thereof” (MILLENNIUM PHARMACEUTICALS, INC., priority 2009, dated 2023):
Read-outs that look alike come from different tables or passages of the source. Each block holds one compound with its values, some of them ahead of it.

Experiments:
[1] = biological target: p110β/p85α (Homo sapiens (Human), UniProt P42338); test: PI 3-Kinase (human) HTRF assay, p110β/p85α; assay type: biochemical
[2] = biological target: p110δ/p85α (Homo sapiens (Human), UniProt O00329); test: PI 3-Kinase (human) HTRF assay, p110δ/p85α; assay type: biochemical
[3] = test system: tumor cells with a PI3Kα mutation (e.g., MDA-MB-361 and T47D); test: Proliferation of tumor cells with PI3Kα mutation; assay type: cell-based; conditions: Homo sapiens
[4] = biological target: p110γ (Homo sapiens (Human), UniProt P48736); test: PI 3-Kinase (human) HTRF assay, p110γ; assay type: biochemical
[5] = biological target: p110α/p85α (Homo sapiens (Human), UniProt P42336); test: PI 3-Kinase (human) HTRF assay, p110α/p85α; assay type: biochemical
[6] = T47D cells, read-out: T47D proliferation
[7] = PC3, read-out: PC3 proliferation In Vitro IC50
[8] = in vitro, read-out: PI3K β IC50
[9] = in vitro, read-out: PI3K δ IC50
[10] = T47D cells, read-out: T47D proliferation IC50
[11] = in vitro, read-out: PI3K γ IC50
[12] = in vitro, read-out: PI3K α IC50

Chain of p110γ (P48736 whole entry): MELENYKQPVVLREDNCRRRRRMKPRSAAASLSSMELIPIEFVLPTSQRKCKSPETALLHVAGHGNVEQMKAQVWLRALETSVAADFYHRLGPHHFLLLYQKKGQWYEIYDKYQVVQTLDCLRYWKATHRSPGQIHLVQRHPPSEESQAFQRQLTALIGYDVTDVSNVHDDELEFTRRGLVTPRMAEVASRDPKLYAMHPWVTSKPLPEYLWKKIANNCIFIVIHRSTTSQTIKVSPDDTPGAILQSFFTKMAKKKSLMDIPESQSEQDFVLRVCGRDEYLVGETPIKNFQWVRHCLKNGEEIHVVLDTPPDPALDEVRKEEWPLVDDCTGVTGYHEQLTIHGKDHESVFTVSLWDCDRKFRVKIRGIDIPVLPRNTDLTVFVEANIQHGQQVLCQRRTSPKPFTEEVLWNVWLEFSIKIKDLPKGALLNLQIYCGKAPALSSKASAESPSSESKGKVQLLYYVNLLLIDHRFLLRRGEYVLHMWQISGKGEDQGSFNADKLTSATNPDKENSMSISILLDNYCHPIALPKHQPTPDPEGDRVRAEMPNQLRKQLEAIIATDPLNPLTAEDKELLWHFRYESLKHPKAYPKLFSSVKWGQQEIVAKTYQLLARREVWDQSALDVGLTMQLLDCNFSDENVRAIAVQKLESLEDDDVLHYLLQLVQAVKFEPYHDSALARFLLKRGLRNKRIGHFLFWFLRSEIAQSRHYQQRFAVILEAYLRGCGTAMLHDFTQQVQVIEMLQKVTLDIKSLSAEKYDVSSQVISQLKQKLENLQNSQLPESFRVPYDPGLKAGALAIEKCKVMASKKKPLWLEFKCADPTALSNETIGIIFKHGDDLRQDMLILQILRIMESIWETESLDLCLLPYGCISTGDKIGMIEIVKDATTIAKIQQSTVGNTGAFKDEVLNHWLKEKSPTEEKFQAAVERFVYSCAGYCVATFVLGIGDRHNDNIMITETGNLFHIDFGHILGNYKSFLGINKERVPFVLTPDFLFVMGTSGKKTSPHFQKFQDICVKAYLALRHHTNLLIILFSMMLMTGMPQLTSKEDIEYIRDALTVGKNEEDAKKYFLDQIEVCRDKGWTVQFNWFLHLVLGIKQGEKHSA
Chain of p110β/p85α (P42338 whole entry): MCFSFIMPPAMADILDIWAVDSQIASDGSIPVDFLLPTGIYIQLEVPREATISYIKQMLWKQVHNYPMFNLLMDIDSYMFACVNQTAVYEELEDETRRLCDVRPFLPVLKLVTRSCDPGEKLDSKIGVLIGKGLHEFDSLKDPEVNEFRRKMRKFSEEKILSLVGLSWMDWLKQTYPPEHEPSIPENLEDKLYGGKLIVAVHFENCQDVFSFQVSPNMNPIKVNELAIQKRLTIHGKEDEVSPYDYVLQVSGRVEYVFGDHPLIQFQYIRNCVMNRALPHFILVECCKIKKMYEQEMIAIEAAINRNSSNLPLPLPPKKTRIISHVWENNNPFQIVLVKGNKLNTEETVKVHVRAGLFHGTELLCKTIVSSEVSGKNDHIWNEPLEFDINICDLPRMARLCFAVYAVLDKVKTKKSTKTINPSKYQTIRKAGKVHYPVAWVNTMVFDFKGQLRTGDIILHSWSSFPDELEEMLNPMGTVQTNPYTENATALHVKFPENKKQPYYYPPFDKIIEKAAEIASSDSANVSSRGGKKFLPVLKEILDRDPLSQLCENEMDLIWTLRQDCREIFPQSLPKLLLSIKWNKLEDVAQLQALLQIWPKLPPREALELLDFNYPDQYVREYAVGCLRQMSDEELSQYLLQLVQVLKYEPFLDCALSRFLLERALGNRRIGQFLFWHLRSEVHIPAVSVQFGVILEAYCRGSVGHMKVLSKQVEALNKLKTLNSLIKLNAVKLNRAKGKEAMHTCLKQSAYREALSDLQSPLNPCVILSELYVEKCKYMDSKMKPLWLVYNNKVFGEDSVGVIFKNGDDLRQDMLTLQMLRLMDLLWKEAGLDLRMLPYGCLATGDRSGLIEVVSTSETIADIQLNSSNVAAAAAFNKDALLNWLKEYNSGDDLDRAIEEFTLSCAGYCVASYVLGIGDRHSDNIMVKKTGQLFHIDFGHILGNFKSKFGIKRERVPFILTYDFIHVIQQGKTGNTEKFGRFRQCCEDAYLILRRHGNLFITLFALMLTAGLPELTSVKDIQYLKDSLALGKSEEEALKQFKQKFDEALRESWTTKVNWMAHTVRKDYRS
Chain of p110β/p85α (P27986 whole entry partner): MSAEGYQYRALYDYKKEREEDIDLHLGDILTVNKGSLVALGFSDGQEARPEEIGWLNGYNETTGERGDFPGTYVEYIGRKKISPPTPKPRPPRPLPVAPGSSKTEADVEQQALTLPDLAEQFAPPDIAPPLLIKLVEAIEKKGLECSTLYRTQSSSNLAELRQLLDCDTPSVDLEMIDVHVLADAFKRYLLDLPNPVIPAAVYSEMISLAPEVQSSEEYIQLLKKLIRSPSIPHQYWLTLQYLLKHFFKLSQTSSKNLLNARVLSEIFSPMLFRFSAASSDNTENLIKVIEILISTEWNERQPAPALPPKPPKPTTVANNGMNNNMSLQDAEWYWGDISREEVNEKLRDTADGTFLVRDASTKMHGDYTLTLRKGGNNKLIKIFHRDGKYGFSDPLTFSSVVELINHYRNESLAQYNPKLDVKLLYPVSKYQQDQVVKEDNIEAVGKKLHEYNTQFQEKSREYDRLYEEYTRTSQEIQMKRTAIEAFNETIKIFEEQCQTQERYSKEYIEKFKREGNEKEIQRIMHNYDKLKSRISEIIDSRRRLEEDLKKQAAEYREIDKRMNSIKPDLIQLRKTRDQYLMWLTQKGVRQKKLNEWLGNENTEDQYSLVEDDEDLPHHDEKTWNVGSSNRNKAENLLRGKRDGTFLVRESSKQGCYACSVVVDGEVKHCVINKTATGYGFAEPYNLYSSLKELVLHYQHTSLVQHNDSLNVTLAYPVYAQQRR
Chain of p110α/p85α (P42336 whole entry): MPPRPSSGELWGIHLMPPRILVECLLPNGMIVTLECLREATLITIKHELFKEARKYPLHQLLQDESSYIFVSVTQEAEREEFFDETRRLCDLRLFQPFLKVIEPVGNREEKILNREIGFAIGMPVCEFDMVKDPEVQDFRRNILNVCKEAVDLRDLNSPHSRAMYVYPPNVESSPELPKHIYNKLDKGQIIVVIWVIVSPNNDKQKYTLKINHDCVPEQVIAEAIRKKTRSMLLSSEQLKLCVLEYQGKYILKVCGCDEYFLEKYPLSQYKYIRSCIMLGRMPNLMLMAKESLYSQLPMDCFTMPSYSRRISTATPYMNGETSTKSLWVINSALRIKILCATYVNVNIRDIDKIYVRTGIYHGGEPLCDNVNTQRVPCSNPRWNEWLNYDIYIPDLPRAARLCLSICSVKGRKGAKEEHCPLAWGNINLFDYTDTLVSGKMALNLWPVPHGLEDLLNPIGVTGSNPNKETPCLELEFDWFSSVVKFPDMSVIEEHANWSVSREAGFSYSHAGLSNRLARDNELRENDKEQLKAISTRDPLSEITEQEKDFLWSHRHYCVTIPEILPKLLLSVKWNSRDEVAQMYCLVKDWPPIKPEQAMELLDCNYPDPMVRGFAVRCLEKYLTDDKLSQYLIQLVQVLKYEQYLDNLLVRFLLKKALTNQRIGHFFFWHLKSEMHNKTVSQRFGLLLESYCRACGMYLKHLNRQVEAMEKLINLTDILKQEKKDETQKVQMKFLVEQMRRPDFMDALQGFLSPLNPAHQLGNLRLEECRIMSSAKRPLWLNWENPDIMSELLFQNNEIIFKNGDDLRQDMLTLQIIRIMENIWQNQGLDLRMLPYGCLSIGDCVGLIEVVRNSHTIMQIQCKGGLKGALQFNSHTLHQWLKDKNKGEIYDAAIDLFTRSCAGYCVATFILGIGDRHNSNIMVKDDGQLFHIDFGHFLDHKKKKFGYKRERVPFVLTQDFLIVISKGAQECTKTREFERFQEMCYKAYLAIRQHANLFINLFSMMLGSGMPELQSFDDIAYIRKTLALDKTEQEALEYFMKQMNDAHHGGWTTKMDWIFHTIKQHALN
Chain of p110α/p85α (P27986 whole entry partner): as the sequence (P27986 whole entry partner) above
Chain of p110δ/p85α (O00329 whole entry): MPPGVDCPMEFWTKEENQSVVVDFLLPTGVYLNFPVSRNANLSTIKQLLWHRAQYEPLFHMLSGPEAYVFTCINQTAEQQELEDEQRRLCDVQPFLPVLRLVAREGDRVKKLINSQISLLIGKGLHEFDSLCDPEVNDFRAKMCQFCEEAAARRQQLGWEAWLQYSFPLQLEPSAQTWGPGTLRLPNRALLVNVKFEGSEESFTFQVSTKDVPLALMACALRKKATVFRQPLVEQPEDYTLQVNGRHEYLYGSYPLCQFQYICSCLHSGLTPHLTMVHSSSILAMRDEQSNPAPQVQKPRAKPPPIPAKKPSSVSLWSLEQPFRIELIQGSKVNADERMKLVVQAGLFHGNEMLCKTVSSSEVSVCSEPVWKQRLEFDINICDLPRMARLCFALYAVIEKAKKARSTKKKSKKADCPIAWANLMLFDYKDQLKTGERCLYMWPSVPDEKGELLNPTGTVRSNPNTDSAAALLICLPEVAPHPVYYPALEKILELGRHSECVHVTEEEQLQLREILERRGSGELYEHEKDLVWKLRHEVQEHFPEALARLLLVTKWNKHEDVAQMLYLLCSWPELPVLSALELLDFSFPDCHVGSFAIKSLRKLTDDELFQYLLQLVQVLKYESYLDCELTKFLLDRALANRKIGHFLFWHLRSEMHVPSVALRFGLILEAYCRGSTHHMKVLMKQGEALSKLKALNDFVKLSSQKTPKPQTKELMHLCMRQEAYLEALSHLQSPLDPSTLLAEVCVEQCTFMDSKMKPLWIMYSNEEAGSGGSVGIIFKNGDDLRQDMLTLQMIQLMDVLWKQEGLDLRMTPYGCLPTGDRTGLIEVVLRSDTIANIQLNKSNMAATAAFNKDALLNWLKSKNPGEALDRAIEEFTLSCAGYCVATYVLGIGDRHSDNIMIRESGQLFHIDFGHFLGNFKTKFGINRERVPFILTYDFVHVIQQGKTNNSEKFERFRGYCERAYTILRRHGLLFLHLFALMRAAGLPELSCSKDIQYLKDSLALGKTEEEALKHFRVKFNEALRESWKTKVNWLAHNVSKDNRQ
Chain of p110δ/p85α (P27986 whole entry partner): as the sequence (P27986 whole entry partner) above

IC50 ([1]; read-out: PI3K β IC50): < 1 µM | IC50 ([2]; read-out: PI3K δ IC50): < 1 µM | IC50 [3, 6]: < 10 µM | IC50 ([4]; read-out: PI3K γ IC50): < 1 µM | IC50 ([5]; read-out: PI3K α IC50): < 0.1 µM
SMILES: CN(C)CC(=O)N1CCC(Nc2ncnc3ccc(-c4ccc5oc(N)nc5c4)cc23)CC1 [compound 103]

IC50 ([1]; read-out: PI3K β In Vitro IC50): < 10 µM | IC50 ([2]; read-out: PI3K δ In Vitro IC50): < 1 µM | IC50 [3, 7]: < 1 µM | IC50 ([4]; read-out: PI3K γ In Vitro IC50): < 1 µM | IC50 ([5]; read-out: PI3K α In Vitro IC50): < 0.1 µM
SMILES: Nc1nc2cc(-c3ccc4ncc(C(=O)N5CC[C@H](n6cccn6)C5)n4c3)ccc2o1 [compound 478]

IC50 ([1]; read-out: PI3K β IC50): < 1 µM | IC50 ([2]; read-out: PI3K δ IC50): < 1 µM | IC50 [3, 6]: < 1 µM | IC50 ([4]; read-out: PI3K γ IC50): < 1 µM | IC50 ([5]; read-out: PI3K α IC50): < 0.1 µM
SMILES: CN(C)CC(=O)N1CCN(c2cnc3ccc(-c4ccc5oc(N)nc5c4)cc3n2)CC1 [compound 139]

IC50 [1, 8]: < 10 µM | IC50 [2, 9]: < 1 µM | IC50 [3, 10]: < 1 µM | IC50 [4, 11]: < 10 µM | IC50 [5, 12]: < 0.1 µM
SMILES: C[C@@H]1CN(C2CN(c3cnc4ccc(-c5ccc6oc(N)nc6c5)cc4n3)C2)CCN1 [compound 355]

IC50 [1, 8]: < 1 µM | IC50 [2, 9]: < 10 µM | IC50 [3, 10]: < 1 µM | IC50 [4, 11]: < 1 µM | IC50 [5, 12]: < 0.1 µM
SMILES: Nc1nc2cc(-c3ccc4ncc(N5CCN(C(=O)CN6CCCC6)CC5)nc4c3)ccc2o1 [compound 278]

IC50 ([1]; read-out: PI3K β IC50): < 10 µM | IC50 ([2]; read-out: PI3K δ IC50): < 1 µM | IC50 [3, 6]: < 10 µM | IC50 ([4]; read-out: PI3K γ IC50): < 10 µM | IC50 ([5]; read-out: PI3K α IC50): < 0.1 µM
SMILES: CC(C)N1CCC(Nc2ncnc3ccc(-c4ccc5oc(N)nc5c4)cc23)CC1 [compound 101]

IC50 ([1]; read-out: PI3K β In Vitro IC50): < 1 µM | IC50 ([2]; read-out: PI3K δ In Vitro IC50): < 0.1 µM | IC50 [3, 7]: < 10 µM | IC50 ([4]; read-out: PI3K γ In Vitro IC50): < 0.1 µM | IC50 ([5]; read-out: PI3K α In Vitro IC50): < 0.1 µM
SMILES: O=C(c1cnc2ccc(-c3cnc(Cl)c(NS(=O)(=O)c4ccccc4F)c3)cn12)N1CCOCC1 [compound 452]

IC50 ([1]; read-out: PI3K β In Vitro IC50): < 1 µM | IC50 ([2]; read-out: PI3K δ In Vitro IC50): < 0.1 µM | IC50 [3, 7]: < 1 µM | IC50 ([4]; read-out: PI3K γ In Vitro IC50): < 0.1 µM | IC50 ([5]; read-out: PI3K α In Vitro IC50): < 0.1 µM
SMILES: O=C(c1cnc2ccc(-c3cnc(Cl)c(NS(=O)(=O)c4ccccc4)c3)cn12)N1CCOCC1 [compound 451]

IC50 [1, 8]: < 1 µM | IC50 [2, 9]: < 1 µM | IC50 [3, 10]: < 1 µM | IC50 [4, 11]: < 1 µM | IC50 [5, 12]: < 0.1 µM
SMILES: CN1CCC(Nc2ncnc3ccc(-c4ccc5oc(N)nc5c4)nc23)CC1 [compound 212]

IC50 ([1]; read-out: PI3K β In Vitro IC50): < 10 µM | IC50 ([2]; read-out: PI3K δ In Vitro IC50): < 10 µM | IC50 [3, 7]: < 10 µM | IC50 ([4]; read-out: PI3K γ In Vitro IC50): < 1 µM | IC50 ([5]; read-out: PI3K α In Vitro IC50): < 0.1 µM
SMILES: CN(C(=O)c1cnc2ccc(-c3ccc4oc(N)nc4c3)cn12)C1CCOCC1 [compound 472]

IC50 ([1]; read-out: PI3K β IC50): < 1 µM | IC50 ([2]; read-out: PI3K δ IC50): < 1 µM | IC50 [3, 6]: < 1 µM | IC50 ([4]; read-out: PI3K γ IC50): < 0.1 µM | IC50 ([5]; read-out: PI3K α IC50): < 0.1 µM
SMILES: Nc1nc2cc(-c3ccc4ncc(N5CCCC5)nc4c3)ccc2o1 [compound 176]

IC50 ([1]; read-out: PI3K β IC50): < 1 µM | IC50 ([2]; read-out: PI3K δ IC50): < 1 µM | IC50 [3, 6]: < 10 µM | IC50 ([4]; read-out: PI3K γ IC50): < 1 µM | IC50 ([5]; read-out: PI3K α IC50): < 0.1 µM
SMILES: Nc1nc2cc(-c3ccc4ncc(NCCN5CCOCC5)nc4c3)ccc2o1 [compound 133]

IC50 [1, 8]: < 1 µM | IC50 [2, 9]: < 10 µM | IC50 [3, 10]: < 10 µM | IC50 [4, 11]: < 1 µM | IC50 [5, 12]: < 10 µM
SMILES: Nc1nc2cc(-c3ccc4sc(N)nc4c3)ccc2o1 [compound 248]

IC50 [1, 8]: < 0.1 µM | IC50 [2, 9]: < 1 µM | IC50 [3, 10]: < 1 µM | IC50 [4, 11]: < 0.1 µM | IC50 [5, 12]: < 0.1 µM
SMILES: C[C@H](N)C(=O)N1CCN(c2cnc3ccc(-c4ccc5oc(N)nc5c4)cc3n2)CC1 [compound 207]

IC50 ([1]; read-out: PI3K β IC50): < 10 µM | IC50 ([2]; read-out: PI3K δ IC50): < 10 µM | IC50 [3, 6]: < 1 µM | IC50 ([4]; read-out: PI3K γ IC50): < 1 µM | IC50 ([5]; read-out: PI3K α IC50): < 0.1 µM
SMILES: Nc1noc2cc(-c3ccc4nccc(-c5ccncc5)c4c3)ccc12 [compound 16]

IC50 ([1]; read-out: PI3K β In Vitro IC50): < 0.1 µM | IC50 ([2]; read-out: PI3K δ In Vitro IC50): < 0.1 µM | IC50 [3, 7]: < 1 µM | IC50 ([4]; read-out: PI3K γ In Vitro IC50): < 0.1 µM | IC50 ([5]; read-out: PI3K α In Vitro IC50): < 0.1 µM
SMILES: COc1ccc(-c2ccc3ncc(C(=O)N4CCOCC4)n3c2)cc1NS(=O)(=O)c1cccnc1 [compound 462]

IC50 ([1]; read-out: PI3K β In Vitro IC50): < 10 µM | IC50 ([2]; read-out: PI3K δ In Vitro IC50): < 1 µM | IC50 [3, 7]: < 10 µM | IC50 ([4]; read-out: PI3K γ In Vitro IC50): < 10 µM | IC50 ([5]; read-out: PI3K α In Vitro IC50): < 0.1 µM
SMILES: C[C@@H]1CN(C2CN(C(=O)c3cnc4ccc(-c5ccc6oc(N)nc6c5)cn34)C2)CCN1 [compound 511]

IC50 ([1]; read-out: PI3K β IC50): < 1 µM | IC50 ([2]; read-out: PI3K δ IC50): < 10 µM | IC50 [3, 6]: < 10 µM | IC50 ([4]; read-out: PI3K γ IC50): < 0.1 µM | IC50 ([5]; read-out: PI3K α IC50): < 0.1 µM
SMILES: CC1CN(c2cnc3ccc(-c4ccc5oc(N)nc5c4)cc3n2)CCO1 (stereo not drawn) [compound 173]

IC50 [1, 8]: < 1 µM | IC50 [2, 9]: < 1 µM | IC50 [3, 10]: < 10 µM | IC50 [4, 11]: < 10 µM | IC50 [5, 12]: < 0.1 µM
SMILES: CC(C)[C@H](N)C(=O)N1CCN(c2cnc3ccc(-c4ccc5oc(N)nc5c4)cc3n2)CC1 [compound 269]

IC50 ([1]; read-out: PI3K β IC50): < 1 µM | IC50 ([2]; read-out: PI3K δ IC50): < 10 µM | IC50 [3, 6]: < 1 µM | IC50 ([4]; read-out: PI3K γ IC50): < 1 µM | IC50 ([5]; read-out: PI3K α IC50): < 0.1 µM
SMILES: CS(=O)(=O)CCN1CCN(c2cnc3ccc(-c4ccc5oc(N)nc5c4)cc3n2)CC1 [compound 90]

IC50 ([1]; read-out: PI3K β IC50): < 0.1 µM | IC50 ([2]; read-out: PI3K δ IC50): < 0.1 µM | IC50 [3, 6]: < 1 µM | IC50 ([4]; read-out: PI3K γ IC50): < 0.1 µM | IC50 ([5]; read-out: PI3K α IC50): < 0.1 µM
SMILES: Nc1nc2cc(-c3ccc4ncc(N5CCN(C(=O)[C@@H]6CCCN6)CC5)nc4c3)ccc2o1 [compound 121]
